Values after ≈ are worked out from the molar mass of the structure shown.
Columns and labels:
[1] = Aqueous solubility (buffer vs acetonitrile/water, 24 h shaking, LC-UV); format: physicochemical; conditions: kinetic from dmso stock, 2.5% DMSO, ">" = more than 90% dissolved
Procedure: The aqueous solubility of the compounds of the invention is determined by comparing the amount dissolved in buffer to the amount in an acetonitrile/water (1/1) solution. Starting from a 10 mM DMSO stock solution aliquots are diluted with acetonitrile/water (1/1) or buffer resp. After 24 h of shaking, the solutions are filtrated and analyzed by LC-UV. The amount dissolved in buffer is compared to the amount in the acetonitrile solution.
Solubility is usually being measured from 0.001 to 0.125 mg/ml at a DMSO concentration of 2.5%. If more than 90% of the compound is dissolved in buffer, the value is marked with “>”.

[2] = target: T1, AMPK complex 1 (containing alpha1beta1gamma1) (Homo sapiens, UniProt Q13131+Q9Y478); experiment: In vitro AMPK activation assay (ADP-Glo Kinase Assay); format: biochemical; conditions: 30 μM ATP, 1 μM peptide, 60 min, room temperature
T1 construct: GST (Glutathion S transferase) (N); made in house; host or cells: baculovirus; virus made in Sf9, expression in High Five cells
T1 sequence (Q13131 whole entry): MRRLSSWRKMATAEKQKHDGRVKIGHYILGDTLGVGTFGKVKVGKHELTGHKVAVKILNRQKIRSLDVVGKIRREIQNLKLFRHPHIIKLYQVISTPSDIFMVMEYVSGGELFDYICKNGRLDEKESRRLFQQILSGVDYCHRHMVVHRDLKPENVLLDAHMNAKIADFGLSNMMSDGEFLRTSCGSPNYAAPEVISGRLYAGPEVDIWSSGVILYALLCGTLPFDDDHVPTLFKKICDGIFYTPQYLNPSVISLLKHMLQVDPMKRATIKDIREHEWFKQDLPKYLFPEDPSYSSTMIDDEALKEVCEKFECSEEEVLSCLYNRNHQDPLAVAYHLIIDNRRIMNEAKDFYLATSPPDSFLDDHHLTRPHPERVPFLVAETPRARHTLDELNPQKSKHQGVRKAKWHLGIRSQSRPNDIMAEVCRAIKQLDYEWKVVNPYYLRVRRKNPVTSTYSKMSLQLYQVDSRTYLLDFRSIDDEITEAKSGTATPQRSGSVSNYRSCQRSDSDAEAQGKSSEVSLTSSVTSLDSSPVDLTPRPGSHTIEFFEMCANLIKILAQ
T1 sequence (Q9Y478 whole entry): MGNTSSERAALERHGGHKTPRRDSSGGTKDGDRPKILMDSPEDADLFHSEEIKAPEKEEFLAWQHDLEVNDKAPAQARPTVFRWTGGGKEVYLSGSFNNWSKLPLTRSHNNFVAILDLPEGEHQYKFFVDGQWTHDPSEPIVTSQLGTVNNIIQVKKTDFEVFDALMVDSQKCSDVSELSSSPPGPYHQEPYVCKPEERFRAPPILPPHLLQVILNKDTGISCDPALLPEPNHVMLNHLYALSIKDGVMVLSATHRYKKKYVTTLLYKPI
T1 sequence (P54619 whole entry partner): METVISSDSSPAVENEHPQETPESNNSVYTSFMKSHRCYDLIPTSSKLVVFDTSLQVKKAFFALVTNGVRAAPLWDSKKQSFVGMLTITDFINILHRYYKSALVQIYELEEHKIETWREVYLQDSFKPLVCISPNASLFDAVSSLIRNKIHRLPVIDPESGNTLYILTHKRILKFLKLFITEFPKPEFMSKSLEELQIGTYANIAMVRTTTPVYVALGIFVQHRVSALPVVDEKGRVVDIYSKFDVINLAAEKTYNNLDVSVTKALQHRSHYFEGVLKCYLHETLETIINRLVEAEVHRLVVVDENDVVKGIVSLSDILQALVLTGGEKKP
Excerpt: Activated AMPK complex 1 (containing alpha1beta1gamma1) was obtained from baculovirus expression system. The gene encoding AMPK alpha1 was cloned into the pACG2T vector (BD Biosciences) to obtain a N-terminal Glutathion S transferase (GST)-fusion protein. The genes encoding AMPK beta 1 and gamma1 were cloned into the p2Bac dual multiple cloning site vector (Invitrogen) with beta1 under the control of the p10 promoter and gamma1 under the control of the PH promoter. The transfer vectors containing AMPK were co-transfected individually with AcPNV BacMagic-3 DNA (EMD Millipore) in Sf9 cells and the recombinant baculoviruses were harvested after 5 days, followed by 3 rounds of amplification of the virus stock in Sf9 cells. AMPK (alpha1beta1gamma1) was expressed in High Five 5 cells by co-infection of recombinant alpha1 virus and recombinant beta1/gamma1 virus for 72 h at 27° C. Cells were harvested by centrifugation and lysed by 3 freeze/thaw cycles in PBS with 10% glycerol and protease inhibitor cocktail (Roche). After centrifugation AMPK a1b1g1 in the supernatant was captured by immobilized glutathione (GE Healthcare), impurities were washed away with PBS and AMPK alpha1beta1gamma1 was eluted with PBS containing 20 mM reduced gluthathione. The protein buffer was then exchanged to PBS with 10% glycerol and protein concentration was determined by UV absorbance.
The white 384-well Optiplates (cat.no. 6007299) were purchased from PerkinElmer. The V9101 ADP-Glo Kinase Assay and ultra pure ATP (V915A) was purchased from Promega. The substrate for AMPK (NH2-HMRSAMSGLHLVKRR_CONH2) was purchased from Upstate (12-355).
Compounds were tested in either serial dilutions or single dose concentrations. The serial compound dilutions were prepared in 100% DMSO automatically. The final DMSO concentration in the assay was 0.1%.
The Compound Stock Solutions were 10 mM in 100% DMSO. The compounds were solubilised at room temperature.
In the 384-well plates 1.25 ul of test compound in assay buffer was mixed with 1.25 ul of AMPK and 1.25 μl of the peptide (final concentration of 1 μM) and 1.25 μl of ATP (final concentration of 30 μM), both dissolved in assay buffer. This step was followed by an incubation time of 60 min. Then 5 μl of ADP Glo Reagent was added. This was followed by 40 min of incubation. Then 10 μl of Kinase Detection Reagent was admixed. The plates were sealed and after an incubation period of 30 min, the luminescence signal was measured in an Envision reader. All incubation steps were accomplished at room temperature.
Each assay microtiter plate contained wells with vehicle controls instead of compound (0.1% DMSO in water) as reference for the low signal (100% CTL, low signal), and wells with serial dilutions of AMP (final 30 μM) as reference for high signals.
The luminescence signal generated was proportional to the ADP concentration produced and was correlated with AMPK activity. The analysis of the data was performed by the calculation of the percentage of ATP consumption of AMPK in the presence of the test compound compared to the consumption of ATP in the presence of AMPK without compound. (RLU(sample)/RLU(low control))*100[RLU=relative luminescence units]
An activator of the AMPK enzyme gave values above 100% CTL.
EC50 values based on dose response curves are calculated with the XIFIT software using the 4 Parameter Logistic Model or Sigmoidal Dose-Response Model.

Row | SMILES | solubility at 24 h ([1]; pH 2.2 buffer) [mg/mL] | solubility at 24 h ([1]; pH 4.5 buffer) [mg/mL] | solubility at 24 h ([1]; pH 6.8 buffer) [mg/mL] | EC50 [2] [µM]
1 | CS(=O)(=NC#N)c1ccc(-c2ccc(-c3nc4[nH]c(O[C@@H]5CO[C@H]6[C@@H]5OC[C@H]6O)nc4cc3Cl)cc2)cc1 (stereo partly drawn) [Example 7, S-(4′-(6-Chloro-2-((3R,3aR,6R,6aR)-6-hydroxyhexahydrofuro[3,2-b]furan-3-yloxy)-3H-imidazo[4,5-b]pyridin-5-yl)biphenyl-4-yl)-S-methyl-N-cyano-sulfoximide] | 0.015 (≈ 27.2 µM) | < 0.001 | < 0.001 | 0.001
2 | CS(C)(=O)=Nc1ccc(-c2ccc(-c3nc4[nH]c(O[C@@H]5CO[C@H]6[C@@H]5OC[C@H]6O)nc4cc3Cl)cc2)cn1 [Example 22, N-(5-(4-(6-Chloro-2-((3R,3aR,6R,6aR)-6-hydroxyhexahydrofuro[3,2-b]furan-3-yloxy)-3H-imidazo[4,5-b]pyridin-5-yl)phenyl)pyridin-2-yl)-S,S-dimethylsulfoximide] | < 0.08 | > 0.007 | < 0.001 | 0.045
3 | CS(=N)(=O)c1ccc(-c2ccc(-c3nc4[nH]c(O[C@@H]5CO[C@H]6[C@@H]5OC[C@H]6O)nc4cc3Cl)cc2)cc1 (stereo partly drawn) [Example 23, (3R,3aR,6R,6aR)-6-(6-Chloro-5-(4′-(S-methylsulfonimidoyl)biphenyl-4-yl)-3H-imidazo[4,5-b]pyridin-2-yloxy)hexahydrofuro[3,2-b]furan-3-ol] | 0.069 (≈ 131 µM) | 0.002 (≈ 3.8 µM) | 0.001 (≈ 1.9 µM) | 0.01
4 | CS(=N)(=O)c1ccc(-c2ccc(-c3nc4[nH]c(O[C@@H]5CO[C@H]6[C@@H]5OC[C@H]6O)nc4cc3Cl)cc2)nc1 (some centres unmarked) [Example 27] | 0.077 (≈ 146 µM) | < 0.001 | < 0.001 | 0.004
5 | CN=S(C)(=O)c1ccc(-c2ccc(-c3nc4[nH]c(O[C@@H]5CO[C@H]6[C@@H]5OC[C@H]6O)nc4cc3Cl)cc2)nc1 (stereo partly drawn) [Example 28, (3R,3aR,6R,6aR)-6-(6-Chloro-5-(4-(5-(N,S-dimethylsulfonimidoyl)pyridin-2-yl)phenyl)-3H-imidazo[4,5-b]pyridin-2-yloxy)hexahydrofuro[3,2-b]furan-3-ol] | 0.092 (≈ 170 µM) | < 0.001 | < 0.001 | 0.002
6 | CS(C)(=O)=NCC1CCN(c2ccc(-c3nc4[nH]c(O[C@@H]5CO[C@H]6[C@@H]5OC[C@H]6O)nc4cc3Cl)cc2)CC1 [Example 31, N-(1-(4-(6-Chloro-2-((3R,3aR,6R,6aR)-6-hydroxyhexahydrofuro[3,2-b]furan-3-yloxy)-3H-imidazo[4,5-b]pyridin-5-yl)phenyl)piperidin-4-ylmethyl)-S,S-dimethylsulfoximide] | > 0.122 | 0.105 (≈ 187 µM) | 0.089 (≈ 158 µM) | 0.017
7 | CS(C)(=O)=Nc1cnc(-c2ccc(-c3nc4[nH]c(O[C@@H]5CO[C@H]6[C@@H]5OC[C@H]6O)nc4cc3Cl)cc2)nc1 [Example 34, N-(2-{4-[6-Chloro-2-((3R,3aR,6R,6aR)-6-hydroxyhexahydrofuro[3,2-b]furan-3-yloxy)-3H-imidazo[4,5-b]pyridin-5-yl]-phenyl}-pyrimidin-5-yl)-S,S-dimethylsulfoximide] | 0.004 (≈ 7.37 µM) | 0.005 (≈ 9.21 µM) | 0.013 (≈ 23.9 µM) | 0.003
8 | CS(C)(=O)=Nc1cc(-c2ccc(-c3nc4[nH]c(O[C@@H]5CO[C@H]6[C@@H]5OC[C@H]6O)nc4cc3Cl)cc2)ccn1 [Example 36, N-(4-{4-[6-Chloro-2-((3R,3aR,6R,6aR)-6-hydroxyhexahydrofuro[3,2-b]furan-3-yloxy)-3H-imidazo[4,5-b]pyridin-5-yl]-phenyl}-pyridin-2-yl)-S,S-dimethylsulfoximide] | 0.099 (≈ 183 µM) | < 0.001 | < 0.001 | 0.015
9 | CS(C)(=O)=Nc1ccc(-c2ccc(-c3nc4[nH]c(O[C@@H]5CO[C@H]6[C@@H]5OC[C@H]6O)nc4cc3Cl)cc2)nn1 [Example 50, N-(6-{4-[6-Chloro-2-((3R,3aR,6R,6aR)-6-hydroxyhexahydrofuro[3,2-b]furan-3-yloxy)-3H-imidazo[4,5-b]pyridin-5-yl]-phenyl}-pyridazin-3-yl)-S,S-dimethylsulfoximide] | > 0.128 | > 0.117 | 0.088 (≈ 162 µM) | 0.304
10 | CS(C)(=O)=NCc1ccc(-c2ccc(-c3nc4[nH]c(O[C@@H]5CO[C@H]6[C@@H]5OC[C@H]6O)nc4cc3Cl)cc2)cn1 [Example 51, N-(5-{4-[6-Chloro-2-((3R,3aR,6R,6aR)-6-hydroxyhexahydrofuro[3,2-b]furan-3-yloxy)-3H-imidazo[4,5-b]pyridin-5-yl]-phenyl}-pyridin-2-ylmethyl)-S,S-dimethylsulfoximide] | > 0.146 | 0.028 (≈ 50.4 µM) | 0.002 (≈ 3.6 µM) | 0.092
11 | CS(=N)(=O)Cc1ccc(-c2ccc(-c3nc4[nH]c(O[C@@H]5CO[C@H]6[C@@H]5OC[C@H]6O)nc4cc3Cl)cc2)cc1 (stereo partly drawn) [Example 52, (3R,3aR,6R,6aR)-6-(6-Chloro-5-(4′-(S-methylsulfonimidoylmethyl)biphenyl-4-yl)-3H-imidazo[4,5-b]pyridin-2-yloxy)hexahydrofuro[3,2-b]furan-3-ol] | 0.042 (≈ 77.6 µM) | < 0.001 | < 0.001 | 0.003
12 | CS(C)(=O)=NCc1cc(-c2ccc(-c3nc4[nH]c(O[C@@H]5CO[C@H]6[C@@H]5OC[C@H]6O)nc4cc3Cl)cc2)ccn1 [Example 53] | – | – | – | 0.056
13 | CS(C)(=N)=Nc1ccc(-c2nc3[nH]c(O[C@@H]4CO[C@H]5[C@@H]4OC[C@H]5O)nc3cc2Cl)cc1 [Example 56, N-(4-(6-Chloro-2-((3R,3aR,6R,6aR)-6-hydroxyhexahydrofuro[3,2-b]furan-3-yloxy)-3H-imidazo[4,5-b]pyridin-5-yl)phenyl)-S,S-dimethyl-sulfondiimine] | – | – | – | 0.041
14 | CN=S1(=O)CC2CN(c3ccc(-c4nc5[nH]c(O[C@@H]6CO[C@H]7[C@@H]6OC[C@H]7O)nc5cc4Cl)cc3)CC2C1 (stereo partly drawn) [Example 57, (3R,3aR,6R,6aR)-6-{6-Chloro-5-[4-(2-methylimino-2-oxo-hexahydro-2λ^6-thieno[3,4-c]pyrrol-5-yl)-phenyl]-3H-imidazo[4,5-b]pyridin-2-yloxy}-hexahydro-furo[3,2-b]furan-3-ol] | – | – | – | 0.118
